From US20250163119A1, “COMPOUNDS FOR THE TREATMENT OF DIABETES OR OBESITY” (Eli Lilly and Company, priority 2023, published 2025)
“And” between values parts separate entries of the source, which are not always exact repeats. Identical values can stand only once. Values belong to the compound of their own block, whether it stands above or below them. *1 amine or outer side, *2 acyl side, *3 side chain or, on linkers, in order; H or OH if unused. Where a SMILES comes first, the peptide text is derived from it. Side-chain parts run from the residue outwards. [ ]: non-standard residue; d: D form. The star is where a group is joined. C20 diacid = O=C(O)CCCCCCCCCCCCCCCCCCC(=O)*; γGlu = O=C(O)[C@H](CCC(=O)[*:2])N[*:1]; εLys = N[C@@H](CCCCN[*:1])C(=O)[*:2]; NMeI = CC[C@H](C)[C@H](NC)C(=O)O; αMeL = CC(C)C[C@](C)(N)C(=O)O; AEEA = NCCOCCOCC(=O)O; Aib = CC(C)(N)C(=O)O

Key:
[1] = Pharmacokinetics in Yucatan mini-pigs, single subcutaneous or intravenous dose; type: in vivo
Method: Plasma concentrations of compounds were determined by LC/MS methods. For each assay, the compound and an internal standard (IS), were extracted from 100% mouse, rat, pig, or monkey plasma (70 μL) using Isopropanol-Methanol. Two distinct layers were formed upon centrifugation with the compound and the IS located in the supernatant layer. An aliquot of the supernatant (150 μL) was transferred to a Waters Sirocco Protein Precipitation Plate. The supernatant was eluted using a positive pressure manifold. The supernatant was mixed with 100-2 Water-Formic acid (400 μL) in a pretreated Sep-Pak tC18 SPE plate and eluted to waste. The peptide and IS were eluted with Acetonitrile-Formic acid (100 μL) in 2 steps (50 μL each step). The elution (40 μL) from SPE plate was mixed with diluent solution (1.875 μL 5× invitrosol and 3.125 μL 1% formic acid in water, 80 μL). A final sample (10 μl) was loaded onto a Xselect CSH C18 IS column (3.5 μm 2.1×20 mm). The column effluent was directed into a Thermo Fisher Scientific Orbitrap (Exploris 240) mass spectrometer for detection and quantitation.
Male Yucatan mini-pigs were administered a single subcutaneous dose or intravenous dose (19 or 99 nmol/kg) of compound in 40 mM Tris-HCl 5% D-mannitol (pH 8) at a volume of 0.01 or 0.05 mL/kg. Blood was collected from each animal at 0.083 (IV only), 0.5, 3, 6, 24, 48, 72, 96, 168, 240, 336, 408, and 504 hours postdose for pharmacokinetic characterization.

[2] = Pharmacokinetics in Sprague Dawley rats, single subcutaneous or intravenous dose (incl. 10, 30, 100 nmol/kg dose response); type: in vivo; details: for Tmax: read-out: Tmax
[3] = Yucatan mini-pig, minipig, plasma, sc, male Yucatan pigs, single subcutaneous dose 19 nmol/kg, Mean, read-out: AUC0-inf
[4] = Yucatan mini-pig, minipig, plasma, sc, male Yucatan pigs, single subcutaneous dose 19 nmol/kg, Mean, read-out: Cmax
[5] = male Yucatan pigs, single subcutaneous dose 19 nmol/kg, individual animal
[6] = male, Yucatan mini-pig, minipig, plasma, iv, 19 nmol/kg, single intravenous dose 19 nmol/kg, individual animal
[7] = male, Yucatan mini-pig, minipig, plasma, iv, 19 nmol/kg, single intravenous dose 19 nmol/kg, mean
[8] = male, Yucatan mini-pig, minipig, plasma, sc, 19 nmol/kg, single subcutaneous dose 19 nmol/kg, Mean
[9] = male, Yucatan mini-pig, minipig, plasma, sc, 19 nmol/kg, single subcutaneous dose 19 nmol/kg, Mean, read-out: CL/F (converted)
[10] = male, Yucatan mini-pig, minipig, plasma, sc, 19 nmol/kg, single subcutaneous dose 19 nmol/kg, Mean, read-out: Tmax
[11] = male, Yucatan mini-pig, minipig, plasma, sc, 19 nmol/kg, single subcutaneous dose 19 nmol/kg, individual animal
[12] = minipig, plasma, single intravenous dose 19 nmol/kg, male Yucatan pigs, mean, read-out: AUC0-inf
[13] = minipig, plasma, single intravenous dose 19 nmol/kg, male Yucatan pigs, mean, read-out: C0
[14] = single intravenous dose 19 nmol/kg, male Yucatan pigs, individual animal
[15] = male, Sprague Dawley, rat, plasma, iv, 201 nmol/kg, single intravenous dose 201 nmol/kg, individual animal
[16] = male, Sprague Dawley, rat, plasma, iv, 201 nmol/kg, single intravenous dose 201 nmol/kg, mean
[17] = male, Sprague Dawley, rat, plasma, sc, 201 nmol/kg, single subcutaneous dose 201 nmol/kg, individual animal
[18] = male, Sprague Dawley, rat, plasma, sc, 201 nmol/kg, single subcutaneous dose 201 nmol/kg, mean
[19] = single intravenous dose 201 nmol/kg, male Sprague Dawley rats, individual animal
[20] = single subcutaneous dose 201 nmol/kg, male Sprague Dawley rats, individual animal

- AUC0-inf [1, 3]: 32.5 µM·h
- Cmax [1, 4]: 0.149 µM
- AUC0-inf [1, 5]: 29.3 µM·h and 35.6 µM·h
- CL/F [1, 5]: 13.6 mL/day/kg
- Cmax [1, 5]: 0.14 µM and 0.157 µM
- T1/2 [1, 5]: 66.8 h
- Tmax [1, 5]: 48 h and 6.0 h
- clearance [1, 6]: 13.9 mL/day/kg
- half-life [1, 6]: 86.7 h
- clearance [1, 7]: 12.5 mL/day/kg
- half-life [1, 7]: 88 h
- half-life [1, 8]: 68.5 h
- CL/F [1, 9]: 14.6 mL/day/kg
- Tmax [1, 10]: 27 h
- half-life [1, 11]: 70.1 h
- CL/F ([1]; male, Yucatan mini-pig, minipig, plasma, sc, 19 nmol/kg, single subcutaneous dose 19 nmol/kg, individual animal, read-out: CL/F (converted)): 15.7 mL/day/kg
- AUC0-inf [1, 12]: 36.9 µM·h
- C0 [1, 13]: 0.943 µM
- AUC0-inf [1, 14]: 32.5 µM·h and 41.2 µM·h
- C0 [1, 14]: 0.899 µM and 0.987 µM
- CL [1, 14]: 11 mL/day/kg
- T1/2 [1, 14]: 89.2 h
Compound: Ac-PPPIVTS[αMeL]DVPT[Aib][αMeL]LQKLLEQERAEKARQQAK([γGlu-AEEA-εLys-C20 diacid])EAAEILAQV-NH2 [SEQ ID NO: 48, Ac-PPPIVTS αMeL DVPT Aib αMeL LQKLLEQERAEKARQQAK(γE-(2-[2-(2-Amino-ethoxy)-ethoxy]-acetyl)-ϵK-CO-(CH2)18-CO2H)EAAEILAQV-NH2]

- AUC0-inf [1, 3]: 18.1 µM·h
- Cmax [1, 4]: 0.107 µM
- AUC0-inf [1, 5]: 24.4 µM·h and 11.7 µM·h
- CL/F [1, 5]: 18.9 mL/day/kg and 39.1 mL/day/kg
- Cmax [1, 5]: 0.154 µM and 0.0604 µM
- T1/2 [1, 5]: 90.8 h
- Tmax [1, 5]: 6 h and 96 h
- clearance [1, 6]: 15.6 mL/day/kg
- half-life [1, 6]: 95.4 h
- clearance [1, 7]: 14.6 mL/day/kg
- half-life [1, 7]: 85.3 h
- half-life [1, 8]: 80.8 h
- CL/F [1, 9]: 29 mL/day/kg
- Tmax [1, 10]: 51 h
- half-life [1, 11]: 70.7 h
- AUC0-inf [1, 12]: 30.9 µM·h
- C0 [1, 13]: 0.694 µM
- AUC0-inf [1, 14]: 28.9 µM·h and 32.8 µM·h
- C0 [1, 14]: 0.809 µM and 0.578 µM
- CL [1, 14]: 13.7 mL/day/kg
- T1/2 [1, 14]: 75.1 h
Compound: Ac-GSPSIVTS[αMeL]DVPT[Aib][αMeL]LQKLLEQERAEKARQQAK([γGlu-AEEA-εLys-C20 diacid])EAAEILAQV-NH2 [SEQ ID NO: 2, Ac-GSPSIVTS αMeL DVPT Aib αMeL LQKLLEQERAEKARQQAK(γE-(2-[2-(2-Amino-ethoxy)-ethoxy]-acetyl)-ϵK-CO-(CH2)18-CO2H)EAAEILAQV-NH2]

- clearance [2, 15]: 80.9 mL/day/kg
- half-life [2, 15]: 20.3 h
- clearance [2, 16]: 70.3 mL/day/kg
- half-life [2, 16]: 19.2 h
- half-life [2, 17]: 19.7 h
- CL/F ([2]; male, Sprague Dawley, rat, plasma, sc, 201 nmol/kg, single subcutaneous dose 201 nmol/kg, individual animal, read-out: CL/F (converted)): 181 mL/day/kg
- Tmax [2, 17]: 24 h
- half-life [2, 18]: 17.1 h
- CL/F ([2]; male, Sprague Dawley, rat, plasma, sc, 201 nmol/kg, single subcutaneous dose 201 nmol/kg, mean, read-out: CL/F (converted)): 181 mL/day/kg
- Tmax [2, 18]: 24 h
- AUC0-inf ([2]; rat, plasma, sc, single subcutaneous dose 201 nmol/kg, male Sprague Dawley rats, mean, read-out: AUC0-inf): 26.8 µM·h
- Cmax ([2]; rat, plasma, sc, single subcutaneous dose 201 nmol/kg, male Sprague Dawley rats, mean, read-out: Cmax): 0.552 µM
- AUC0-inf ([2]; rat, plasma, single intravenous dose 201 nmol/kg, male Sprague Dawley rats, mean, read-out: AUC0-inf): 69.2 µM·h
- C0 ([2]; rat, plasma, single intravenous dose 201 nmol/kg, male Sprague Dawley rats, mean, read-out: C0): 5.29 µM
- CL [2, 19]: 65 mL/day/kg and 65.3 mL/day/kg
- T1/2 [2, 19]: 18.3 h and 19.0 h
- CL/F [2, 20]: 193 mL/day/kg and 168 mL/day/kg
- T1/2 [2, 20]: 14.9 h and 16.7 h
Compound: CC[C@H](C)[C@H](NC)C(=O)N[C@H](C(=O)N[C@H](C(=O)N[C@@H](CO)C(=O)N[C@@H](CC(C)C)C(=O)N[C@@H](CC(=O)O)C(=O)N[C@H](C(=O)N1CCC[C@H]1C(=O)N[C@H](C(=O)NCC(=O)N[C@@](C)(CC(C)C)C(=O)N[C@@H](CC(C)C)C(=O)N[C@@H](CCC(N)=O)C(=O)N[C@@H](CCCCN)C(=O)N[C@@H](CC(C)C)C(=O)N[C@@H](CC(C)C)C(=O)N[C@@H](CCC(=O)O)C(=O)N[C@@H](CCC(N)=O)C(=O)N[C@@H](CCC(=O)O)C(=O)N[C@@H](CCCNC(=N)N)C(=O)N[C@@H](C)C(=O)N[C@@H](CCC(=O)O)C(=O)N[C@@H](CCCCN)C(=O)N[C@@H](C)C(=O)N[C@@H](CCCNC(=N)N)C(=O)N[C@@H](CCC(N)=O)C(=O)N[C@@H](CCC(N)=O)C(=O)N[C@@H](C)C(=O)N[C@@H](CCCCNC(=O)COCCOCCNC(=O)COCCOCCNC(=O)CC[C@H](NC(=O)CCCCCCCCCCCCCCCCCCC(=O)O)C(=O)O)C(=O)N[C@@H](CCC(=O)O)C(=O)N[C@@H](C)C(=O)N[C@@H](C)C(=O)N[C@@H](CCC(=O)O)C(=O)N[C@H](C(=O)N[C@@H](CC(C)C)C(=O)N[C@@H](C)C(=O)N[C@@H](CCC(N)=O)C(=O)N[C@H](C(N)=O)C(C)C)[C@@H](C)CC)[C@@H](C)CC)C(C)C)[C@@H](C)O)C(C)C [SEQ ID NO: 50, (NMeI) VTSLDVPIG αMeL LQKLLEQERAEKARQQAK((2-[2-(2-Amino-ethoxy)-ethoxy]-acetyl)2-γE-CO-(CH2)18-CO2H)EAAEILAQV-NH2] (H-[NMeI]VTSLDVPIG[αMeL]LQKLLEQERAEKARQQAK([AEEA-AEEA-γGlu-C20 diacid])EAAEILAQV-NH2)
- AUC0-inf [2, 19]: 59.6 µM·h and 74.2 µM·h and 73.9 µM·h
- C0 [2, 19]: 5.56 µM and 4.36 µM and 5.96 µM
- AUC0-inf [2, 20]: 26.7 µM·h and 25.1 µM·h and 28.7 µM·h
- Cmax [2, 20]: 0.577 µM and 0.46 µM and 0.618 µM
